# From ChEMBL document CHEMBL3885881, “DrugMatrix”
# Species on record: Rattus norvegicus
# Format: toxicity, organism-based, Sprague-Dawley
# Settings: in vivo, po, route oral GAVAGE, […]; for ABSOLUTE EOSINOPHIL / ABSOLUTE LYMPHOCYTE / ABSOLUTE MONOCYTE / ABSOLUTE SEGMENTED NEUTROPHIL / BASOPHIL / EOSINOPHIL / ERYTHROCYTE COUNT / HEMATOCRIT / HEMOGLOBIN / LEUKOCYTE COUNT / LYMPHOCYTE / MEAN CORPUSCULAR HEMOGLOBIN / MEAN CORPUSCULAR HEMOGLOBIN CONCENTRATION / MEAN CORPUSCULAR VOLUME / MONOCYTE / NEUTROPHIL / NUCLEATED RED BLOOD CELLS / PLATELET COUNT: tissue Blood; for ALANINE AMINOTRANSFERASE / ALBUMIN / ALKALINE PHOSPHATASE / ASPARTATE AMINOTRANSFERASE / BLOOD UREA NITROGEN / CARBON DIOXIDE / CHLORIDE / CHOLESTEROL / CREATINE PHOSPHOKINASE / CREATININE / GLUCOSE / LACTATE DEHYDROGENASE / LIPASE / PHOSPHORUS / POTASSIUM / SODIUM / TOTAL BILIRUBIN / TOTAL PROTEIN / URIC ACID: tissue Plasma
# [1] = 130 mg/kg, 24 h, dose level Low, time 1 day
# [2] = 500 mg/kg, 6 h, dose level High, time 0.25 day
# [3] = 500 mg/kg, 24 h, dose level High, time 1 day
# Description: DrugMatrix - Regimen: Single
smiles,measurement,setting,value
CCOC(=O)C(C)(C)Oc1ccc(Cl)cc1 [CLOFIBRATE],ABSOLUTE EOSINOPHIL,[1],55.33 CELLS/uL
same,ABSOLUTE LYMPHOCYTE,[1],15484.17 CELLS/uL
same,ABSOLUTE MONOCYTE,[1],278.5 CELLS/uL
same,ABSOLUTE SEGMENTED NEUTROPHIL,[1],965.33 CELLS/uL
same,BASOPHIL,[1],0%
same,EOSINOPHIL,[1],0.33%
same,ERYTHROCYTE COUNT,[1],5.03 x10E6/uL
same,HEMATOCRIT,[1],32.6%
same,HEMOGLOBIN,[1],13.25 G/DL
same,LEUKOCYTE COUNT,[1],16.78 x10E3/uL
same,LYMPHOCYTE,[1],92.17%
same,MEAN CORPUSCULAR HEMOGLOBIN,[1],26.33 pg
same,MEAN CORPUSCULAR HEMOGLOBIN CONCENTRATION,[1],40.65 G/DL
same,MEAN CORPUSCULAR VOLUME,[1],64.78 fL
same,MONOCYTE,[1],1.67%
same,NEUTROPHIL,[1],5.83%
same,NUCLEATED RED BLOOD CELLS,[1],0 /100WBC
same,PLATELET COUNT,[1],862.83 x10E3/uL
same,ALANINE AMINOTRANSFERASE,[1],67 u/L
same,ALBUMIN,[1],4.33 G/DL
same,ALKALINE PHOSPHATASE,[1],318.17 u/L
same,ASPARTATE AMINOTRANSFERASE,[1],75.17 u/L
same,BLOOD UREA NITROGEN,[1],12.67 mg/dL
same,CARBON DIOXIDE,[1],32 mmol/L
same,CHLORIDE,[1],100 MEQ/L
same,CHOLESTEROL,[1],47.33 mg/dL
same,CREATINE PHOSPHOKINASE,[1],215.5 u/L
same,CREATININE,[1],0.16 mg/dL
same,GLUCOSE,[1],132.67 mg/dL
same,LACTATE DEHYDROGENASE,[1],108.83 u/L
same,LIPASE,[1],10.5 u/L
same,PHOSPHORUS,[1],9.12 mg/dL
same,POTASSIUM,[1],6.21 MEQ/L
same,SODIUM,[1],142.78 MEQ/L
same,TOTAL BILIRUBIN,[1],0.17 mg/dL
same,TOTAL PROTEIN,[1],5.58 G/DL
same,URIC ACID,[1],1.07 mg/dL
same,ABSOLUTE EOSINOPHIL,[2],41.33 CELLS/uL
same,ABSOLUTE LYMPHOCYTE,[2],7521 CELLS/uL
same,ABSOLUTE MONOCYTE,[2],204.83 CELLS/uL
same,ABSOLUTE SEGMENTED NEUTROPHIL,[2],899.5 CELLS/uL
same,BASOPHIL,[2],0%
same,EOSINOPHIL,[2],0.5%
same,ERYTHROCYTE COUNT,[2],5.56 x10E6/uL
same,HEMATOCRIT,[2],35.4%
same,HEMOGLOBIN,[2],13.87 G/DL
same,LEUKOCYTE COUNT,[2],8.67 x10E3/uL
same,LYMPHOCYTE,[2],86.5%
same,MEAN CORPUSCULAR HEMOGLOBIN,[2],24.97 pg
same,MEAN CORPUSCULAR HEMOGLOBIN CONCENTRATION,[2],39.18 G/DL
same,MEAN CORPUSCULAR VOLUME,[2],63.73 fL
same,MONOCYTE,[2],2.33%
same,NEUTROPHIL,[2],10.67%
same,NUCLEATED RED BLOOD CELLS,[2],0 /100WBC
same,PLATELET COUNT,[2],1195.5 x10E3/uL
same,ALANINE AMINOTRANSFERASE,[2],52.5 u/L
same,ALBUMIN,[2],4.53 G/DL
same,ALKALINE PHOSPHATASE,[2],309.5 u/L
same,ASPARTATE AMINOTRANSFERASE,[2],94.5 u/L
same,BLOOD UREA NITROGEN,[2],9.33 mg/dL
same,CARBON DIOXIDE,[2],22.5 mmol/L
same,CHLORIDE,[2],100.67 MEQ/L
same,CHOLESTEROL,[2],65.33 mg/dL
same,CREATINE PHOSPHOKINASE,[2],333.17 u/L
same,CREATININE,[2],0.16 mg/dL
same,GLUCOSE,[2],130.33 mg/dL
same,LACTATE DEHYDROGENASE,[2],146.83 u/L
same,LIPASE,[2],9.83 u/L
same,PHOSPHORUS,[2],11.68 mg/dL
same,POTASSIUM,[2],6.42 MEQ/L
same,SODIUM,[2],143.4 MEQ/L
same,TOTAL BILIRUBIN,[2],0.18 mg/dL
same,TOTAL PROTEIN,[2],6 G/DL
same,URIC ACID,[2],1.37 mg/dL
same,ABSOLUTE EOSINOPHIL,[3],42 CELLS/uL
same,ABSOLUTE LYMPHOCYTE,[3],10953.5 CELLS/uL
same,ABSOLUTE MONOCYTE,[3],221.67 CELLS/uL
same,ABSOLUTE SEGMENTED NEUTROPHIL,[3],1432.83 CELLS/uL
same,BASOPHIL,[3],0%
same,EOSINOPHIL,[3],0.33%
same,ERYTHROCYTE COUNT,[3],5.6 x10E6/uL
same,HEMATOCRIT,[3],35.22%
same,HEMOGLOBIN,[3],14.02 G/DL
same,LEUKOCYTE COUNT,[3],12.65 x10E3/uL
same,LYMPHOCYTE,[3],86.83%
same,MEAN CORPUSCULAR HEMOGLOBIN,[3],25.02 pg
same,MEAN CORPUSCULAR HEMOGLOBIN CONCENTRATION,[3],39.8 G/DL
same,MEAN CORPUSCULAR VOLUME,[3],62.93 fL
same,MONOCYTE,[3],1.67%
same,NEUTROPHIL,[3],11.17%
same,NUCLEATED RED BLOOD CELLS,[3],0 /100WBC
same,PLATELET COUNT,[3],1112.33 x10E3/uL
same,ALANINE AMINOTRANSFERASE,[3],93.33 u/L
same,ALBUMIN,[3],4.55 G/DL
same,ALKALINE PHOSPHATASE,[3],411.33 u/L
same,ASPARTATE AMINOTRANSFERASE,[3],162.83 u/L
same,BLOOD UREA NITROGEN,[3],11.67 mg/dL
same,CARBON DIOXIDE,[3],33.5 mmol/L
same,CHLORIDE,[3],97.83 MEQ/L
same,CHOLESTEROL,[3],34.83 mg/dL
same,CREATINE PHOSPHOKINASE,[3],245.67 u/L
same,CREATININE,[3],0.19 mg/dL
same,GLUCOSE,[3],137.17 mg/dL
same,LACTATE DEHYDROGENASE,[3],114.17 u/L
same,LIPASE,[3],9.83 u/L
same,PHOSPHORUS,[3],10.23 mg/dL
same,POTASSIUM,[3],6.67 MEQ/L
same,SODIUM,[3],143.3 MEQ/L
same,TOTAL BILIRUBIN,[3],0.25 mg/dL
same,TOTAL PROTEIN,[3],5.77 G/DL
same,URIC ACID,[3],1.18 mg/dL
